Test results taken from publication PMC6152416, “Pharmacological and Toxicological Screening of Novel Benzimidazole-Morpholine Derivatives as Dual-Acting Inhibitors” (Molecules : A Journal of Synthetic Chemistry and Natural …, 2017).
“Also recorded” adds a separate entry of the source. Marks after values point to notes of the source that are not given here.

Columns and labels:
human recombinant MAO-A = target: T1, human recombinant MAO-A (Homo sapiens, UniProt P21397); test: MAO inhibition assay (kynuramine, fluorimetric); format: biochemical
T1 sequence (P21397 1-527): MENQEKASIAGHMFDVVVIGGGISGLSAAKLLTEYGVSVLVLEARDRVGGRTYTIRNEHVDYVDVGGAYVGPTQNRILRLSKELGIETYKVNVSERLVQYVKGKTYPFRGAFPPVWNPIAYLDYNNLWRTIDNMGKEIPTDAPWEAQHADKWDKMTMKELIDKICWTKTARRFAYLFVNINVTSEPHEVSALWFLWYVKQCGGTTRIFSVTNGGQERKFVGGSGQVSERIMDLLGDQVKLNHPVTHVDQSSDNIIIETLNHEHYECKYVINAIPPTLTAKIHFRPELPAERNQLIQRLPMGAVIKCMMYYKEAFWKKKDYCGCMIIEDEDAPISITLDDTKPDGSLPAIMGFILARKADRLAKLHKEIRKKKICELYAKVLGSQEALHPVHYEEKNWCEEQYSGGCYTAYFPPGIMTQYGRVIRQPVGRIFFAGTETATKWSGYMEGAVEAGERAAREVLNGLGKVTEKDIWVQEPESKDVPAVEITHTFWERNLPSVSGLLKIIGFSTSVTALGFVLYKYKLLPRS
Protocol: Enzyme activity assays were performed according to the procedure reported by Matsumoto et al. with slight modifications. In order to prevent the destructive effect of light on MAO enzymes, the assays were performed in 96-well black plates. Phosphate buffer solution (0.1 M, pH = 7.4) was used for preparation of stock solutions (5 mg/mL) of both human recombinant MAO-A and MAO-B enzymes. […] The addition of the test compound solution was followed by addition of either MAO-A or MAO-B enzyme (50 μL/well) solutions. After 10 min of incubation at 37 °C, kynuramine (50 μL/well) was added and enzyme-substrate reaction was initiated. The plate was incubated for 20 min at 37 °C and then reaction was terminated by addition of 2 N NaOH (75 μL/well). The fluorimetric reads from the top was performed at 310 nm excitation and 380 nm emission wavelengths.

MTT cytotoxicity assay = format: cell-based, mouse; conditions: mouse, NIH/3T3 mouse embryonic fibroblast cells, read-out: Cytotoxicity NIH3T3 Cells IC50
Protocol: (§1) Cytotoxicity was tested using NIH/3T3 mouse embryonic fibroblast cell line (ATCC® CRL-1658™, London, UK). NIH/3T3 cells were incubated according to the supplier’s recommendations. NIH/3T3 cells were seeded as 1 × 10^4 cells into each well of 96-well plates. MTT assay was performed as previously described. The compounds were tested between 1 mM and 0.000316 mM concentrations (1.0, 0.316, 0.10, 0.0316, 0.01, 0.00316, 0.001, 0.000316 mM). The IC50 values were determined by plotting a dose-response curve of inhibition % versus tested concentrations of the compound [62].

[1] = test system: NIH/3T3 mouse embryonic fibroblast cell line; test: MTT cytotoxicity assay; format: cell-based; conditions: NIH/3T3
Protocol: as §1

[2] = test system: Salmonella typhimurium TA100; test: Ames MPF genotoxicity assay; format: cell-based; conditions: for Ames MPF mutagenicity classification: TA100, with/without metabolic activation (S9)
Protocol: (§2) The genotoxicity of selected compounds (2b, 2j, 2m) was determined by Ames assay using Ames MPF 98/100 mutagenicity assay sample kit (Xenometrix AG, Allschwil, Switzerland) as previously described elsewhere. Salmonella typhimurium strains, TA98 (frameshift mutations) and TA100 (base-pair substitutions) were used in the assay. The concentration of the compounds was between 16 and 5000 μg/mL, in accordance with the guideline. Compounds were prepared in six different concentrations (5.0, 2.5, 1.25, 0.625, 0.3125, 0.156 mg/mL) in DMSO. Mutagenic potential was determined in the absence or presence of Aroclor™-1254 induced male Sprague–Dawley rat liver microsomal enzyme (S9) mix (Xenometrix AG). Positive controls without S9 mix were 2-nitrofluorene (2.0 μg/mL) and 4-nitroquinoline N-oxide (0.1 μg/mL), whereas 1.0 μg/mL and 2.5 μg/mL of 2-aminoanthracene solutions were used as positive controls with S9 against TA98 and TA100, respectively. Solvent control was prepared with 4% DMSO. The end of an experiment was determined by the change of the indicator medium colour to yellow, which was originating from the decrease of pH due to revertant bacteria. Yellow wells were counted as positive, and compared with the negative control. Fold induction over the negative control and fold induction over the baseline were calculated (Fold induction over the negative control is accepted as the ratio of the mean number of positive wells for the dose concentration divided by the mean number of positive wells for the zero dose (negative) control. Fold induction over the baseline is accepted as the ratio of the mean number of positive wells for the dose concentration divided by zero dose baseline. The zero-dose baseline is obtained by adding one standard deviation to the mean number of positive wells of the zero dose control. If the baseline is less than 1, the value is set to 1 for calculation).
(§3) Mutagenicity was determined according to the criteria reported previously. For a baseline value of ≤3, significant increases between 2 and 3-fold of the baseline were classified as weak mutagen, and increases ≥3-fold of the baseline were classified as mutagen. […] As a rule, at least two adjacent doses with significant increases or a significant increase at the highest dose level should be observed for a mutagenic compound. All of the doses were compared according to Student’s t-test at p < 0.05 for statistical significance.

[3] = test system: Salmonella typhimurium TA98; test: Ames MPF genotoxicity assay; format: cell-based; conditions: for Ames MPF mutagenicity classification: TA98, in the presence/absence of metabolic activation (S9)
Protocol: as §2, §3

Structure (SMILES) | MAO-A Inhibition (%) (human recombinant MAO-A; 10^-3 M) | MAO-A Inhibition (%) (human recombinant MAO-A; 10^-4 M) | IC50 (MTT cytotoxicity assay) [µM] | cytotoxicity in words [1] | REVERTANTS Fold Increase (over Baseline) ([2]; TA100, S9+, 0.156 mg/mL) | REVERTANTS Fold Increase (over Baseline) ([2]; TA100, S9+, 0.3125 mg/mL) | REVERTANTS Fold Increase (over Baseline) ([2]; TA100, S9+, 0.625 mg/mL) | REVERTANTS Fold Increase (over Baseline) ([2]; TA100, S9+, 1.25 mg/mL) | REVERTANTS Fold Increase (over Baseline) ([2]; TA100, S9+, 2.5 mg/mL) | REVERTANTS Fold Increase (over Baseline) ([2]; TA100, S9+, 5 mg/mL) | REVERTANTS Fold Increase (over Baseline) ([2]; TA100, S9−, 0.156 mg/mL) | REVERTANTS Fold Increase (over Baseline) ([2]; TA100, S9−, 0.3125 mg/mL) | REVERTANTS Fold Increase (over Baseline) ([2]; TA100, S9−, 0.625 mg/mL) | REVERTANTS Fold Increase (over Baseline) ([2]; TA100, S9−, 1.25 mg/mL) | REVERTANTS Fold Increase (over Baseline) ([2]; TA100, S9−, 2.5 mg/mL) | REVERTANTS Fold Increase (over Baseline) ([2]; TA100, S9−, 5 mg/mL) | Ames MPF mutagenicity classification [2] | REVERTANTS Fold Increase (over Baseline) ([3]; TA98, S9+, 0.156 mg/mL) | REVERTANTS Fold Increase (over Baseline) ([3]; TA98, S9+, 0.3125 mg/mL) | REVERTANTS Fold Increase (over Baseline) ([3]; TA98, S9+, 0.625 mg/mL) | other results
CC(C)c1ccc(-c2nc3ccccc3n2CCN2CCOCC2)cc1 [Compound 2e, 2-(4-Isopropylphenyl)-1-[2-(morpholin-4-yl)ethyl]-1H-benzimidazole] | 24.29 | 17.31 | – | – | – | – | – | – | – | – | – | – | – | – | – | – | – | – | – | – | –
CCOc1ccc(-c2nc3ccccc3n2CCN2CCOCC2)cc1 [Compound 2j, 2-(4-Ethoxyphenyl)-1-[2-(morpholin-4-yl)ethyl]-1H-benzimidazole] | 28.47 | 19.42 | 316 | non-cytotoxic | 0.15 | 0.00 | 0.15 | 0.38 | 0.31 | 0.15 | 0.80 | 1.00 | 0.40 | 0.67 | 0.67 *** | 1.20 | non-genotoxic; also recorded: non-mutagenic | 0.25 | 0.12 * | 0.62 | REVERTANTS Fold Increase (over Baseline) ([3]; TA98, S9+, 1.25 mg/mL): 0.74; REVERTANTS Fold Increase (over Baseline) ([3]; TA98, S9+, 2.5 mg/mL): 0.12; REVERTANTS Fold Increase (over Baseline) ([3]; TA98, S9+, 5 mg/mL): 0.74 *; REVERTANTS Fold Increase (over Baseline) ([3]; TA98, S9−, 0.156 mg/mL): 0.60; REVERTANTS Fold Increase (over Baseline) ([3]; TA98, S9−, 0.3125 mg/mL): 0.94; REVERTANTS Fold Increase (over Baseline) ([3]; TA98, S9−, 0.625 mg/mL): 0.68; REVERTANTS Fold Increase (over Baseline) ([3]; TA98, S9−, 1.25 mg/mL): 0.60; REVERTANTS Fold Increase (over Baseline) ([3]; TA98, S9−, 2.5 mg/mL): 0.94; REVERTANTS Fold Increase (over Baseline) ([3]; TA98, S9−, 5 mg/mL): 0.09 ***; Ames MPF mutagenicity classification [3]: non-genotoxic; also recorded: non-mutagenic
FC(F)(F)Oc1ccc(-c2nc3ccccc3n2CCN2CCOCC2)cc1 [Compound 2m, 2-(4-Trifluoromethoxyphenyl)-1-[2-(morpholin-4-yl)ethyl]-1H-benzimidazole] | 34.29 | 16.39 | 100 | non-cytotoxic | 0.10 | 0.10 | 0.88 | 0.19 | 0.49 | 0.29 | 0.61 | 0.88 | 0.47 | 0.47 | 0.54 | 0.61 | non-genotoxic; also recorded: non-mutagenic | 0.46 | 0.62 | 0.77 | REVERTANTS Fold Increase (over Baseline) ([3]; TA98, S9+, 1.25 mg/mL): 0.46; REVERTANTS Fold Increase (over Baseline) ([3]; TA98, S9+, 2.5 mg/mL): 1.23; REVERTANTS Fold Increase (over Baseline) ([3]; TA98, S9+, 5 mg/mL): 0.31; REVERTANTS Fold Increase (over Baseline) ([3]; TA98, S9−, 0.156 mg/mL): 0.95; REVERTANTS Fold Increase (over Baseline) ([3]; TA98, S9−, 0.3125 mg/mL): 0.70; REVERTANTS Fold Increase (over Baseline) ([3]; TA98, S9−, 0.625 mg/mL): 0.57; REVERTANTS Fold Increase (over Baseline) ([3]; TA98, S9−, 1.25 mg/mL): 1.08 *; REVERTANTS Fold Increase (over Baseline) ([3]; TA98, S9−, 2.5 mg/mL): 0.82; REVERTANTS Fold Increase (over Baseline) ([3]; TA98, S9−, 5 mg/mL): 1.08 *; Ames MPF mutagenicity classification [3]: non-genotoxic; also recorded: non-mutagenic
